Measurements as given in patent US12358859B2, “Series of compounds for treatment of skin diseases and other conditions” (Unigen, Inc., priority 2018, dated 2025).

Test system: reconstructed skin (keratinocytes and melanocytes)
Experiment: Reconstructed human skin model (Melanoderm)
Format: cell-based
Settings: for significant whitening of melanocytes observed as early as: after the beginning of the experiment (data not shown); for alterations of cell morphology / whitening effects on skin melanocytes: applied topically for 15 days; for whitening effects on melanocytes: topical, photographs after 14 days; for toxicity on reconstructed skin: at 0.05%
Experimental: The skin whitening effects of test compounds were studied using a reconstructed skin model, Melanoderm™ provided by MatTek Corp. (Ashland, Mass.) according to the manufacturer's specifications. Briefly, normal human epidermal keratinocytes and normal human melanocytes derived from dark skin donors were co-cultured on a surface of collagen-coated membrane to form multi-layered, highly differentiated skin tissue (MEL-300-B). The tissues were maintained in the CO2, incubator at 37° C. The apical surfaces of the reconstructed skin (9 mm in diameter) were exposed to air whereas the bottom surfaces remained in contact with 5 mL of maintenance medium, containing skin differentiating factors (EPI-100-NNM-113). Test compounds were formulated in 80% propylene glycol as follows: 10 mg of each test compound was dissolved in DMSO and diluted with 80% propylene glycol (1,2-propanediol, Sigma-Aldrich) to stock concentrations. The compounds were then sterilized by passing through 0.2 um filter and diluted in sterile water/propylene glycol to final test concentrations in 0.5% DMSO, 80% propylene glycol. In addition, the following controls were used: 80% propylene glycol with 0.5% DMSO, and 1% kojic acid in 80% propylene glycol.
‘Test compounds were applied to the apical surface of the tissues as follows: 25 μl of each test compound, 25 μl of 80% propylene glycol (vehicle control), and 25 μl of 1% kojic acid (positive control). The samples were reapplied every other day for 14 days. All the samples were tested in duplicate. At the end of the experiment microscopic images were taken.
The potential skin-whitening properties of test compounds were explored in a reconstructed skin model. The model consists of normal, human-derived epidermal keratinocytes and melanocytes, which have been co-cultured to form a multilayered, highly differentiated human epidermis. In this study the melanocytes were obtained from a highly pigmented donor.
Different concentrations of test compounds, 80% propylene glycol (the vehicle control), or 1% kojic acid (positive control) were repeatedly applied topically on the surface of the reconstructed skin for 15 days. […] Photographs of skin specimen taken after 15 days of the experiment show significant dose-dependent whitening effects on melanocytes, which appear on photographs as dark dendritic cells.

Row | SMILES | significant whitening of melanocytes observed as early as [days] | alterations of cell morphology | whitening effects on skin melanocytes | whitening effects on melanocytes | toxicity on reconstructed skin
1 | CC(C)=CCCC(C)=Cc1ccc(O)cc1 (mixture of isomers) [Compound 1, (E/Z)-4-(2,6-dimethylhepta-1,5-dienyl)phenol] | 3 | without causing any detectable alterations | significant whitening effects | significant whitening effects | 
2 | CC(C)=CCC/C(C)=C/c1cc(O)cc(O)c1 [Compound 4, (E/Z)-5-(2,6-dimethylhepta-1,5-dienyl)benzene-1,3-diol] |  |  |  | significant whitening effects | some toxicity
3 | CC(C)=CCCC(C)/C=C/c1ccc(O)cc1O (centres unmarked) [Compound 6, (E)-4-(3,7-dimethylocta-1,6-dienyl) benzene-1,3-diol] | 3 | without causing any detectable alterations | significant whitening effects | significant whitening effects | 
4 | CC(C)=CCCC(C)/C=C/c1cc(O)cc(O)c1 (centres unmarked) [Compound 7, (E)-5-(3,7-dimethylocta-1,6-dienyl) benzene-1,3-diol] |  |  |  | significant whitening effects | some toxicity
5 | CC(C)=CCCC(C)C/C=C\c1cc(O)cc(O)c1 (centres unmarked) [Compound 15, (Z)-5-(4,8-dimethylnona-1,7-dienyl) benzene-1,3-diol] |  |  |  | significant whitening effects | some toxicity
